Laboratory results as given in patent US4956381A, “Treating tissue calcium depletion or degenerative processes in bone or cartilage” (Sandoz Ltd., priority 1987, dated 1990).

Experiments:
[1] = test system: IL-1; assay: IL-1 induced secretion of metalloproteinase (MP) in chondrocytes; type: cell-based; conditions: 2 days incubation
Method: Furthermore the influence on IL-1 induced secretion of MP is determined using chondrocytes as a target system for IL-1. IL-1 (Genzyme Corporation,USA) is added with or without a COMPOUND OF THE INVENTION or Dexamethasone (control) to chondrocytes and the activity or metalloproteinase is determined in the supernatant media of 2 days incubation period.

[2] = test system: recombinant human IL-1; assay: Recombinant human IL-1 induced mouse thymocyte proliferation; type: cell-based; conditions: 75 ng/ml rh IL-1
Method: (§1) Lymphocyte proliferation is the standard test for monokine activity. It is highly sensitive, though relatively unspecific, with IL-2, phorbol myristate acetate, concanavalin A' g-type-prostaglandin and indomethacin-nall effecting disturbance. Human monocyte culture media are prepared as described under I.I.b. above, diluted 1:10, 1:20 and 1:40 (v:v), and added to […] (obtained from C3H/HeJ mice) Dulbecco's modified Eagle's medium, containing 20 mM hydroxyethyl-piperazin-ethane-sulfonic acid, 12 mM NaHCO3, 2 mM glutamine, 2% foetal bovine serum, 10 μM 2-mercaptoethanol, […] and antibiotics. The cells are incubated for 2 days in 96-well culture plates and the proliferation rate determined using a ^3 H-thymidine pulse (1 μC/well) during the final 6 hours. The incorporated radioactivity is collected on filter paper and counted. […] Thus determined ED50 s for the compounds D2 and K1 each in substantially pure Z-isomeric form in a series of 2 separate experiments each with 3 parallel determinations are of the order of 30 μM
(§2) In order to rule out an antagonistic effect or a direct influence of the COMPOUNDS OF THE INVENTION on the proliferation of mouse thymocytes which are used above in the LAF-test, the effect of the COMPOUNDS OF THE INVENTION on the incorporation of ^3 H-thymidine Is determined after thymocyte stimulation with recombinant human IL-1 or IL-2.

[3] = test system: pulmonary fibrosis; assay: Pulmonary fibrosis (bleomycin induced); type: in vivo, New Zealand white rabbits; conditions: ca. 2.5 to 60 mg/kg/day p.o.; substantially pure Z-isomeric form; vs placebo
Method: Testing is carried out in accordance with the general methodology described by G. J. Laurent et al. in Eur. J. Clin. Invest. (1981) 11, 441-448. Pulmonary fibrosis is induced in groups of 4 New Zealand white rabbits (aged 127 days at commencement of the experiment), each weighing 2.0-2.5 kg, by intratracheal instillation of 10 mg/kg bleomycin. The lungs of test animals are examined 2, 4 and 8 weeks later.

[4] = test system: IL-1β; assay: RIA-Kit IL-1 quantification in human monocyte cultures; type: cell-based
Method: (§3) Mononuclear cells are obtained from the blood of healthy volunteers via centrifugation and cultivated on tissue culture dishes with test compound at varying concentrations [Schnyder et al., J. Immunol., 138, 496-503 (1987)]. The non-adherent lymphocytes are removed after 4 hours by washing several times. Fresh medium, test compound and lipopolysaccharide (LPS) as stimulant are added and the monocytes incubated for further 19 hours. The pooled culture media are diluted 1:10 (v:v) with fresh medium and added to confluent rabbit chondrocytes. MP activity in the chondrocyte culture medium is assayed after a further 2 days. COMPOUNDS OF THE INVENTION, in particular compounds D2 and K1, are active in suppressing monokine release in the above test method at concentrations of the order of from about 30 to about 100 μM. Thus determined ED50 S for the compounds D2 and K1 each in substantially pure Z-isomeric form in a series of 3 or 7 separate experiments each with 3 parallel determinations are, for both compounds, of the order of 60 to 100 μM.
The procedures of example 1.1.b. above are repeated and IL-1 concentrations in recovered, undiluted culture medium determined employing a CISTRON IL-1 radioimmuno assay kit (the CISTRON kit is obtainable from Cistron, 10, Bloomfield Avenue, P.O. Box 2004, Pine Brook, NJ 07 058 USA. It is IL-1β specific and recognises both intra- and extra-cellular material).

[5] = test system: beagle dogs; assay: Tolerability / pilot toxicology in beagle dogs; type: in vivo; conditions: 150 and 200 mg/kg p.o., gelatine capsules over 5 weeks, olive oil week 6 to 8; substantially pure Z-isomeric form
[6] = test system: periodontal disease; assay: Clinical trial III: calcium resorption - periodontal disease; type: in vivo, human; conditions: ca. 400 to 1200 mg p.o./day or injection ca. 0.5 or 1.0 to 5.0 mg per gum pouch; after ca. 2 to 3 weeks
Method: COMPOUND OF THE INVENTION, e.g. compound D2 or K1 in substantially pure Z-isomeric form, is administered at dosages of from ca. 400 to 1200 mg/p.o./day administered once or in divided dosages up to 4x daily, or by injection into the gum at the site of disease at dosages of the order of about 0.5 or 1.0 to about 5.0 mg into each gum pouch. The subjects are examined at regular weekly or 2x weekly intervals for disease progression.

[7] = test system: human monocytes; assay: LAF-test (thymocyte proliferation), monokine production by human monocytes; type: cell-based; conditions: Monocyte, substantially pure Z-isomeric form, 2 separate experiments, 3 parallel determinations, read-out: ED50 (inhibition of monokine production)
Method: as §3
Lymphocyte proliferation is the standard test for monokine activity. […] The cells are incubated for 2 days in 96-well culture plates and the proliferation rate determined using a ^3 H-thymidine pulse (1 μC/well) during the final 6 hours. The incorporated radioactivity is collected on filter paper and counted. […]

[8] = test system: recombinant human IL-2; assay: Recombinant human IL-2 induced mouse thymocyte proliferation; type: cell-based; conditions: 10 ng/ml rh IL-2
Method: as §1, §2

[9] = test system: psoriatic arthritis or seronegative spondylarthrosis or osteoarthrosis; assay: Clinical trial IV: degenerative joint disease; type: in vivo, human; conditions: ca. 200 to 1200 mg p.o./day, 8 weeks
Method: COMPOUND OF THE INVENTION, e.g. compound D2 or K1 in substantially pure Z-isomeric form, is administered at dosages of from ca. 200 to 1200 mg/p.o./day, once or in divided dosages up to 4×daily for 8 weeks. The subjects are examined at a regular interval of 2 weeks for disease progression on parameters such as pain sensation at the joints, evaluation of the functional capacity according to Steinbrocker, hand grip strength or Richtie Index.

[10] = 3H-thymidine incorporation, mouse thymocytes
[11] = CISTRON IL-1 radioimmuno assay, human monocytes

IC50 ([4]; Homo sapiens, Monocyte, 19 h, substantially pure Z-isomeric form, 2-8 experiments, 3 parallel determinations, read-out: ED50 for extra-cellular IL-1 level suppression): ~25 µM
SMILES: COC1=Cc2ccccc2/C(=C/C(=O)O)c2cc(Cl)sc21 [Compound K1, [2-Chloro-10-methoxy-4H-benzo[4,5]cyclohepta[1,2-b]thiophen-4-ylidene]-acetic acid]
influence on IL-1 induced secretion of MP [1]: do not influence the IL-1 induced secretion of MP
concentration dependency of influence on rh IL-1 induced proliferation [2]: no concentration dependency is detectable
influence on recombinant human IL-1 induced proliferation [2, 10]: no significant influence
pulmonary fibrosis [3]: substantial reduction of pulmonary fibrosis
extra-cellular IL-1 level [4, 11]: extra-cellular content is reduced significantly
intracellular IL-1 level [4, 11]: remain substantially unaffected
pathological effects [5]: no pathological effects are observed
condition (periodontal disease) [6]: marked improvement in condition after ca. 2 to 3 weeks continuous therapy
IC50 [7]: ~30 µM
concentration dependency of influence on rh IL-2 induced proliferation [8]: no concentration dependency is detectable
influence on recombinant human IL-2 induced proliferation [8, 10]: no significant influence
condition (degenerative joint disease) [9]: improvement in condition after the 8 week treatment period
